IC50 data for 26 compounds are collected here from patent publication US8207172B2 (Bayer Intellectual Property GmbH, priority 2004, dated 2012).

The subject of assay [1] is A431 cells (human epidermoid carcinoma). Kind of assay: In vitro tumor cell proliferation assay (Cell Titer-Glo luminescent cell viability), A431. In kind it is cell-based. Conditions: A-431, 72 h, 72 hours of drug exposure, ATP luminescence readout, read-out: IC50, anti-proliferative activity (inhibition of cell proliferation). The gist of the method: (§1)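 CellTiter-Glo luminescence (ATP content of metabolically active cells) after 72 h compound exposure at 37° C gave IC50s.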
A general note: Cellular ATP, detected with luciferase, serves as a proxy for viable cell number.

The test system of assay [2] is BT474 (human breast carcinoma). Put plainly: In vitro tumor cell proliferation assay (Cell Titer-Glo luminescent cell viability), BT474. In kind it is cell-based. Conditions: BT-474, 72 h, BT474 cells, 72 hours of drug exposure, ATP luminescence readout, read-out: IC50, anti-proliferative activity (inhibition of cell proliferation). In a few lines: as §1

Structures are written as SMILES. Where a name gives a salt, the structure may show the parent alone.

Take `CN1CCN(CCn2ncc3c2CCc2c-3sc3ncnc(Nc4ccc(F)c(Cl)c4)c23)CC1` [Example 90, N-(3-chloro-4-fluorophenyl)-3-[2-(4-methylpiperazin-1-yl)ethyl]-4,5-dihydro-3H-pyrimido[5′,4′:4,5]thieno[2,3-e]indazol-6-amine trifluoroacetate]: the IC50 in assay [1] is no more than 5 µM; in assay [2] it was no more than 5000 nM.

With `OCCN(CCO)CCn1ncc2c1CCc1c-2sc2ncnc(Nc3ccc(F)c(Cl)c3)c12` [Example 91, 2,2′-[(2-{6-[(3-chloro-4-fluorophenyl)amino]-4,5-dihydro-3H-pyrimido[5′,4′:4,5]thieno[2,3-e]indazol-3-yl}ethyl)imino]diethanol trifluoroacetate (salt)], the IC50 in assay [1] was no more than 5 µM; in assay [2] it was no more than 5000 nM.

`CS(=O)(=O)CCNCCn1ncc2c1CCc1c-2sc2ncnc(Nc3ccc(F)c(Cl)c3)c12` [Example 92, N-(3-chloro-4-fluorophenyl)-3-(2-{[2-(methylsulfonyl)ethyl]amino}ethyl)-4,5-dihydro-3H-pyrimido[5′,4′:4,5]thieno[2,3-e]indazol-6-amine]: the IC50 is no more than 5 µM in assay [1] and no more than 5000 nM in assay [2].

Turning to `Fc1ccc(Nc2ncnc3sc4c(c23)CCc2c-4cnn2CCNCCN2CCOCC2)cc1Cl` [Example 93, N-(3-chloro-4-fluorophenyl)-3-{2-[(2-morpholin-4-ylethyl)amino]ethyl}-4,5-dihydro-3H-pyrimido[5′,4′:4,5]thieno[2,3-e]indazol-6-amine], the IC50 in assay [1] was no more than 5 µM; in assay [2], no more than 5000 nM.

Regarding `Fc1ccc(Nc2ncnc3sc4c(c23)CCc2c-4cnn2CCN2CCNCC2)cc1Cl` [Example 94, N-(3-chloro-4-fluorophenyl)-3-(2-piperazin-1-ylethyl)-4,5-dihydro-3H-pyrimido[5′,4′:4,5]thieno[2,3-e]indazol-6-amine], the results for the IC50 in assay [1] and in assay [2] were no more than 5 µM and no more than 5000 nM, respectively.

With `CN(C)[C@H]1CCN(CCn2ncc3c2CCc2c-3sc3ncnc(Nc4ccc(F)c(Cl)c4)c23)C1` [Example 95, N-(3-chloro-4-fluorophenyl)-3-{2-[3-(dimethylamino)pyrrolidin-1-yl]ethyl}-4,5-dihydro-3H-pyrimido[5′,4′:4,5]thieno[2,3-e]indazol-6-amine], the values for the IC50 in assay [1] and in assay [2] were no more than 5 µM and no more than 1000 nM, respectively.

Regarding `OCCNCCn1ncc2c1CCc1c-2sc2ncnc(Nc3ccc(F)c(Cl)c3)c12` [Example 96, 2-[(2-{6-[(3-chloro-4-fluorophenyl)amino]-4,5-dihydro-3H-pyrimido[5′,4′:4,5]thieno[2,3-e]indazol-3-yl}ethyl)amino]ethanol], the IC50 in assay [1] is no more than 5 µM; in assay [2], no more than 1000 nM.

Consider `Fc1ccc(Nc2ncnc3sc4c(c23)CCc2c-4cnn2CCn2ccnc2)cc1Cl` [Example 97, N-(3-chloro-4-fluorophenyl)-3-[2-(1H-imidazol-1-yl)ethyl]-4,5-dihydro-3H-pyrimido[5′,4′:4,5]thieno[2,3-e]indazol-6-amine], for which the IC50 in assay [1] is no more than 5 µM; in assay [2] it was no more than 5000 nM.

Take `CC(C)(C)[Si](C)(C)OCCn1cc2c(n1)CCc1c-2sc2ncnc(Nc3ccc(OCc4ccccn4)c(Cl)c3)c12` [Example 98, 2-(2-{[tert-butyl(dimethyl)silyl]oxy}ethyl)-N-[3-chloro-4-(pyridin-2-ylmethoxy)phenyl]-4,5-dihydro-2H-pyrimido[5′,4′:4,5]thieno[2,3-e]indazol-6-amine]: the IC50 in assay [1] is no more than 50 µM; in assay [2], no more than 1000 nM.

Regarding `OCCn1cc2c(n1)CCc1c-2sc2ncnc(Nc3ccc(OCc4ccccn4)c(Cl)c3)c12` [Example 99, 2-(6-{[3-chloro-4-(pyridin-2-ylmethoxy)phenyl]amino}-4,5-dihydro-2H-pyrimido[5′,4′:4,5]thieno[2,3-e]indazol-2-yl)ethanol], the IC50 in assay [1] was no more than 5 µM; in assay [2] it was no more than 1000 nM.

`OCCn1ncc2c1CCc1c-2sc2ncnc(Nc3ccc(OCc4ccccn4)c(Cl)c3)c12` [Example 100, 2-(6-{[3-chloro-4-(pyridin-2-ylmethoxy)phenyl]amino}-4,5-dihydro-2H-pyrimido[5′,4′:4,5]thieno[2,3-e]indazol-3-yl)ethanol]: the IC50 is no more than 5 µM in assay [1] and no more than 1000 nM in assay [2].

Take `Clc1cc(Nc2ncnc3sc4c(c23)CCc2nn(CCBr)cc2-4)ccc1OCc1ccccn1` [Example 101, 2-(2-bromoethyl)-N-[3-chloro-4-(pyridin-2-ylmethoxy)phenyl]-4,5-dihydro-2H-pyrimido[5′,4′:4,5]thieno[2,3-e]indazol-6-amine]: the IC50 is no more than 50 µM in assay [1] and no more than 1000 nM in assay [2].

For the compound `CN1CCN(CCn2cc3c(n2)CCc2c-3sc3ncnc(Nc4ccc(OCc5ccccn5)c(Cl)c4)c23)CC1` [Example 102, N-[3-chloro-4-(pyridin-2-ylmethoxy)phenyl]-2-[2-(4-methylpiperazin-1-yl)ethyl]-4,5-dihydro-2H-pyrimido[5′,4′:4,5]thieno[2,3-e]indazol-6-amine], the results for the IC50 in assay [1] and in assay [2] were no more than 5 µM and no more than 1000 nM, respectively.

Turning to `COCCNCCn1cc2c(n1)CCc1c-2sc2ncnc(Nc3ccc(OCc4ccccn4)c(Cl)c3)c12` [Example 103, N-[3-chloro-4-(pyridin-2-ylmethoxy)phenyl]-2-{2-[(2-methoxyethyl)amino]ethyl}-4,5-dihydro-2H-pyrimido[5′,4′:4,5]thieno[2,3-e]indazol-6-amine], the IC50 in assay [1] is no more than 50 µM; in assay [2], no more than 1000 nM.

For the compound `Clc1cc(Nc2ncnc3sc4c(c23)CCc2nn(CCn3ccnc3)cc2-4)ccc1OCc1ccccn1` [Example 104, N-[3-chloro-4-(pyridin-2-ylmethoxy)phenyl]-2-[2-(1H-imidazol-1-yl)ethyl]-4,5-dihydro-2H-pyrimido[5′,4′:4,5]thieno[2,3-e]indazol-6-amine], the IC50 was no more than 50 µM in assay [1] and no more than 1000 nM in assay [2].

As for `CS(=O)(=O)CCNCCn1cc2c(n1)CCc1c-2sc2ncnc(Nc3ccc(OCc4ccccn4)c(Cl)c3)c12` [Example 105, N-[3-chloro-4-(pyridin-2-ylmethoxy)phenyl]-2-(2-{[2-(methylsulfonyl)ethyl]amino}ethyl)-4,5-dihydro-2H-pyrimido[5′,4′:4,5]thieno[2,3-e]indazol-6-amine], the IC50 in assay [1] was no more than 5 µM; in assay [2] it was no more than 1000 nM.

On to `Clc1cc(Nc2ncnc3sc4c(c23)CCc2nn(CCN3CCOCC3)cc2-4)ccc1OCc1ccccn1` [Example 106, N-[3-chloro-4-(pyridin-2-ylmethoxy)phenyl]-2-(2-morpholin-4-ylethyl)-4,5-dihydro-2H-pyrimido[5′,4′:4,5]thieno[2,3-e]indazol-6-amine], for which the IC50 in assay [1] was no more than 50 µM; in assay [2], no more than 1000 nM.

On to `CNCCn1cc2c(n1)CCc1c-2sc2ncnc(Nc3ccc(OCc4ccccn4)c(Cl)c3)c12` [Example 107, N-[3-chloro-4-(pyridin-2-ylmethoxy)phenyl]-2-[2-(methylamino)ethyl]-4,5-dihydro-2H-pyrimido[5′,4′:4,5]thieno[2,3-e]indazol-6-amine], for which the IC50 in assay [1] is no more than 5 µM; in assay [2], no more than 1000 nM.

As to `CCNCCn1cc2c(n1)CCc1c-2sc2ncnc(Nc3ccc(OCc4ccccn4)c(Cl)c3)c12` [Example 108, N-[3-chloro-4-(pyridin-2-ylmethoxy)phenyl]-2-[2-(ethylamino)ethyl]-4,5-dihydro-2H-pyrimido[5′,4′:4,5]thieno[2,3-e]indazol-6-amine], the figures for the IC50 in assay [1] and in assay [2] were no more than 50 µM and no more than 1000 nM, respectively.

In the case of `Clc1cc(Nc2ncnc3sc4c(c23)CCc2n[nH]cc2-4)ccc1OCc1ccccn1` [Example 109, N-[3-chloro-4-(pyridin-2-ylmethoxy)phenyl]-4,5-dihydro-2H-pyrimido[5′,4′:4,5]thieno[2,3-e]indazol-6-amine], the IC50 in assay [1] was no more than 50 µM; in assay [2], no more than 1000 nM.

Take `Clc1cc(Nc2ncnc3sc4c(c23)CCc2c-4cnn2CCBr)ccc1OCc1ccccn1` [Example 110, 3-(2-bromoethyl)-N-[3-chloro-4-(pyridin-2-ylmethoxy)phenyl]-4,5-dihydro-3H-pyrimido[5′,4′:4,5]thieno[2,3-e]indazol-6-amine]: the IC50 in assay [1] is no more than 5 µM; in assay [2] it was no more than 1000 nM.

For the compound `Clc1cc(Nc2ncnc3sc4c(c23)CCc2c-4cnn2CCN2CCOCC2)ccc1OCc1ccccn1` [Example 111, N-[3-chloro-4-(pyridin-2-ylmethoxy)phenyl]-3-(2-morpholin-4-ylethyl)-4,5-dihydro-3H-pyrimido[5′,4′:4,5]thieno[2,3-e]indazol-6-amine], the IC50 in assay [1] is no more than 50 µM; in assay [2], no more than 1000 nM.

Consider `CN1CCN(CCn2ncc3c2CCc2c-3sc3ncnc(Nc4ccc(OCc5ccccn5)c(Cl)c4)c23)CC1` [Example 112, N-[3-chloro-4-(pyridin-2-ylmethoxy)phenyl]-3-[2-(4-methylpiperazin-1-yl)ethyl]-4,5-dihydro-3H-pyrimido[5′,4′:4,5]thieno[2,3-e]indazol-6-amine], for which the figures for the IC50 in assay [1] and in assay [2] were no more than 5 µM and no more than 1000 nM, respectively.

As to `COCCNCCn1ncc2c1CCc1c-2sc2ncnc(Nc3ccc(OCc4ccccn4)c(Cl)c3)c12` [Example 113, N-[3-chloro-4-(pyridin-2-ylmethoxy)phenyl]-3-{2-[(2-methoxyethyl)amino]ethyl}-4,5-dihydro-3H-pyrimido[5′,4′:4,5]thieno[2,3-e]indazol-6-amine], the values for the IC50 in assay [1] and in assay [2] were no more than 50 µM and no more than 1000 nM, respectively.

`CS(=O)(=O)CCNCCn1ncc2c1CCc1c-2sc2ncnc(Nc3ccc(OCc4ccccn4)c(Cl)c3)c12` [Example 114, N-[3-chloro-4-(pyridin-2-ylmethoxy)phenyl]-3-(2-{[2-(methylsulfonyl)ethyl]amino}ethyl)-4,5-dihydro-3H-pyrimido[5′,4′:4,5]thieno[2,3-e]indazol-6-amine]: the IC50 in assay [1] was no more than 5 µM; in assay [2], no more than 1000 nM.

With `Cc1cccc(COc2ccc(Nc3ncnc4sc5c(c34)CCc3nn(CCO)cc3-5)cc2Cl)n1` [Example 115], the values for the IC50 in assay [1] and in assay [2] were no more than 50 µM and no more than 1000 nM, respectively.
